Measured values as given in patent US7238377B2, “Use of an oil of the gourd family for inhibiting 5 alpha-reductase activity” (Laboratoires Expanscience, priority 2001, dated 2007).
Where “and” joins values, the source holds several entries; their conditions need not be identical. Equal entries are not always repeated. Marks after values point to notes of the source that are not given here.

Test system: 5α-reductase
Experiment: In vitro evaluation of 5α-reductase activity: conversion of testosterone to 5α-dihydrotestosterone in normal human dermal fibroblast cultures
Type: cell-based
Settings: finasteride 30 ng/ml
Excerpt: In vitro evaluation of the 5α-reductase activity of the balsam pear oil on the conversion of testosterone to 5α-dihydrotestosterone in normal human dermal fibroblast cultures
It is proposed to evaluate the effect of the solid oil (butter) extracted from seeds of balsam pear (Momordica charantia), extracted with solvent (hexane), on 5α-reductase activity. An in vitro model of normal human dermal fibroblast cultures was selected.
The balsam pear oil was provided by the Laboratoires Pharmascience and was stored at +4° C. until the time it was used. The effects of the test product were compared with those obtained in the presence of finasteride, used as reference product (finasteride, principle active agent of the tablets CHIBRO-PROSCAR: MERCK SHARP & DOHME CHIBRET).
The radioactive testosterone (labeled with tritium at positions 1, 2, 6 and 7, specific activity 95 Ci/mmol) was provided by AMERSHAM, the nonradiolabeled testosterone was provided by SIGMA.
The fibroblast culture medium (FCM) consisted of MEM/M199 (3:1, v/v) supplemented with penicillin (50 IU/ml), streptomycin ([…]), sodium bicarbonate (0.2%, w/v) and FCS (10%, v/v).
The test system consisted of normal human dermal fibroblasts cultured in monolayer. The fibroblasts were isolated from a residue of an abdominoplasty carried out on a person (subject No. i0006). The cells were used at the third passage; they were cultured, until the monolayers reached confluency, in the FCM medium at 37° C. in a humid atmosphere containing 5% CO2.
The fibroblast incubation medium (FIM) consisted of FCM supplemented with tritiated testosterone (1.6×10^−7 M, i.e. 6.32 μCi/ml) and nonradiolabeled testosterone (3.84×10^−6 M).
The finasteride was extracted from the tablets by grinding, stirring in DMSO, centrifugation, and then collection of the supernatant (theoretical concentration of this solution: 1 mg/ml of finasteride), which was tested at 30 ng/ml. […]
The migration solvent was a mixture of dichloromethane and ether (7:3, v/v). At the end of migration, the silica plates were read using a BERTHOLD radioactivity scanner.
Comparison of the Rf (relative retention factor) values determined for the standards with those obtained for the various radioactive metabolites made it possible to identify these metabolites.
The metabolization of the testosterone to 5α-dihydro-testosterone under the various experimental conditions was calculated; the results (areas of the 5α-dihydro-testosterone peaks counted by the BERTHOLD scanner) are expressed in pmol of 5α-DHT formed per […]. They have also been expressed as percentage of the 5α-reductase activity present in the “control cells” group. […]

`CC(C)(C)NC(=O)[C@H]1CC[C@H]2[C@@H]3CC[C@H]4NC(=O)C=C[C@]4(C)[C@H]3CC[C@]12C` [Finasteride, finasteride] was tested, and the “pmol of 5α-DHT/μg of DNA (individual cultures)” value (2 h preincubation, 24 h incubation, triplicate values, control cells 2.68, 1.91, 1.56) was 0.76 pmol of 5α-DHT/μg of DNA and 0.48 pmol of 5α-DHT/μg of DNA and 0.62 pmol of 5α-DHT/μg of DNA, the “% control (5α-reductase activity)” value (24 h incubation, control cells = 100) was 30% and the “pmol of 5α-DHT/μg of DNA, Mean” value (24 h incubation, control cells mean 2.05, p<0.05 vs control) was 0.62** pmol of 5α-DHT/μg of DNA. The “inhibition of the 5α-reductase activity” value (p<0.05) was 70%.
